Reference: ChEMBL document CHEMBL5346898, “Triazole-fused pyrimidines in target-based anticancer drug discovery” (Eur J Med Chem, 2023)
Values belong to the molecule of their own block, whether it stands above or below them.

Key:
eIF-2-alpha kinase GCN2 [1] = molecular target: T1, eIF-2-alpha kinase GCN2 (Homo sapiens, UniProt Q9P2K8); assay: Inhibition of human GCN2 (unknown origin)
Tubulin (Homo sapiens) = Tubulin (Homo sapiens) (UniProt P68371+Q9H4B7+P0DPH7+P68366+Q13509+Q71U36+P04350+Q3ZCM7+P07437+P68363+Q9BQE3+Q6PEY2+Q13885+Q9BVA1+Q9BUF5); assay: Inhibition of tubulin polymerization (unknown origin) at 10 uM by spectrophotometric analysis relative to control; format: protein-complex assay
G-401 = assay: Anticancer activity against human G-401 cells assessed as cell growth inhibition; format: functional, cell-based
Tubulin [2] = assay: Inhibition of tubulin polymerization (unknown origin) by spectrophotometric analysis; format: protein-complex assay, Homo sapiens
Polycomb protein EED = Polycomb protein EED (Homo sapiens, UniProt O75530); assay: Inhibition of EED (unknown origin)
Tubulin [3] = assay: Inhibition of tubulin polymerization (unknown origin); format: protein-complex assay, Homo sapiens
A2780 = assay: Anticancer activity against human A2780 cells assessed as cell growth measured after 48 hrs by MTT assay; format: functional, cell-based; conditions: A2780, 48 h
[4] = Anticancer activity against human A2780AD cells assessed as cell growth measured after 48 hrs by MTT assay; format: functional, cell-based
eIF-2-alpha kinase GCN2 [5] = molecular target: T1, eIF-2-alpha kinase GCN2; assay: Inhibition of human recombinant GCN2 using eIF2alpha as substrate
SW620/AD300 = assay: Antitumor activity against […] SW620/AD300 cells xenografted in BALB/c nude mouse assessed as relative tumor proliferation rate at 100 mg/kg/day, IG measured after 15 days relative to control; format: functional, Homo sapiens; conditions: time 15 day
[6] = molecular target: T2, Ubiquitin carboxyl-terminal hydrolase 28 (Homo sapiens, UniProt Q96RU2); assay: Inhibition of USP28 (unknown origin)
T2 sequence (Q96RU2 whole entry): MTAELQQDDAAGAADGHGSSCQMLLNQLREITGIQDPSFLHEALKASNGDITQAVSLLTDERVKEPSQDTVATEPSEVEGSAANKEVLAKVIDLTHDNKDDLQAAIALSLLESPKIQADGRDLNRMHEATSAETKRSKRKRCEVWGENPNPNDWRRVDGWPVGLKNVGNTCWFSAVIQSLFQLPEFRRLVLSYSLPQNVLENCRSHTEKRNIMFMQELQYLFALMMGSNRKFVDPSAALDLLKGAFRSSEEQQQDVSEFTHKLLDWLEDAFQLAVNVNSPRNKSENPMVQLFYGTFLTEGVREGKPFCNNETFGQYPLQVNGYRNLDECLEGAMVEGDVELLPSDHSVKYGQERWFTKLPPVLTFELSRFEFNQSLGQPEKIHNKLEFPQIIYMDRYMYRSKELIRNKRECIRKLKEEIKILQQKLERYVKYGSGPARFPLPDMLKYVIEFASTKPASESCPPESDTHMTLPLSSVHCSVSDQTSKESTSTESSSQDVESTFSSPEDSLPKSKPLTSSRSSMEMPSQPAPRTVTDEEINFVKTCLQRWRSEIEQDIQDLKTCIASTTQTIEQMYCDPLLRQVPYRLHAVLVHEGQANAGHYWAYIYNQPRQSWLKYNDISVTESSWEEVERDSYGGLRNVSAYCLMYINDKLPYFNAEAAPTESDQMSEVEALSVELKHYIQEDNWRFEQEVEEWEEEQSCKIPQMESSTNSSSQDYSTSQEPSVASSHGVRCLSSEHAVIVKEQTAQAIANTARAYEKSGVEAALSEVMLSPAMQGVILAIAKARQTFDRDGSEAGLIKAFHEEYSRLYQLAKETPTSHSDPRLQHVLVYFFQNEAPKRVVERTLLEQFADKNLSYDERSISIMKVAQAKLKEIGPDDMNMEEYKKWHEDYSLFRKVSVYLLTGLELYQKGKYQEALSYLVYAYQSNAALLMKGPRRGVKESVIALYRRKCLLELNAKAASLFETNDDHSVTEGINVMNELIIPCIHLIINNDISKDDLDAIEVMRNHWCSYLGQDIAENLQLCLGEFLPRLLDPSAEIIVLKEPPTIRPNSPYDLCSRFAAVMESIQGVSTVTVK

[7] = molecular target: Ubiquitin carboxyl-terminal hydrolase 7 (Homo sapiens, UniProt Q93009); assay: Inhibition of USP7 (unknown origin)
[8] = molecular target: Lysine-specific histone demethylase 1A (Homo sapiens, UniProt O60341); assay: Inhibition of LSD1 (unknown origin)

T1 sequence (Q9P2K8 whole entry): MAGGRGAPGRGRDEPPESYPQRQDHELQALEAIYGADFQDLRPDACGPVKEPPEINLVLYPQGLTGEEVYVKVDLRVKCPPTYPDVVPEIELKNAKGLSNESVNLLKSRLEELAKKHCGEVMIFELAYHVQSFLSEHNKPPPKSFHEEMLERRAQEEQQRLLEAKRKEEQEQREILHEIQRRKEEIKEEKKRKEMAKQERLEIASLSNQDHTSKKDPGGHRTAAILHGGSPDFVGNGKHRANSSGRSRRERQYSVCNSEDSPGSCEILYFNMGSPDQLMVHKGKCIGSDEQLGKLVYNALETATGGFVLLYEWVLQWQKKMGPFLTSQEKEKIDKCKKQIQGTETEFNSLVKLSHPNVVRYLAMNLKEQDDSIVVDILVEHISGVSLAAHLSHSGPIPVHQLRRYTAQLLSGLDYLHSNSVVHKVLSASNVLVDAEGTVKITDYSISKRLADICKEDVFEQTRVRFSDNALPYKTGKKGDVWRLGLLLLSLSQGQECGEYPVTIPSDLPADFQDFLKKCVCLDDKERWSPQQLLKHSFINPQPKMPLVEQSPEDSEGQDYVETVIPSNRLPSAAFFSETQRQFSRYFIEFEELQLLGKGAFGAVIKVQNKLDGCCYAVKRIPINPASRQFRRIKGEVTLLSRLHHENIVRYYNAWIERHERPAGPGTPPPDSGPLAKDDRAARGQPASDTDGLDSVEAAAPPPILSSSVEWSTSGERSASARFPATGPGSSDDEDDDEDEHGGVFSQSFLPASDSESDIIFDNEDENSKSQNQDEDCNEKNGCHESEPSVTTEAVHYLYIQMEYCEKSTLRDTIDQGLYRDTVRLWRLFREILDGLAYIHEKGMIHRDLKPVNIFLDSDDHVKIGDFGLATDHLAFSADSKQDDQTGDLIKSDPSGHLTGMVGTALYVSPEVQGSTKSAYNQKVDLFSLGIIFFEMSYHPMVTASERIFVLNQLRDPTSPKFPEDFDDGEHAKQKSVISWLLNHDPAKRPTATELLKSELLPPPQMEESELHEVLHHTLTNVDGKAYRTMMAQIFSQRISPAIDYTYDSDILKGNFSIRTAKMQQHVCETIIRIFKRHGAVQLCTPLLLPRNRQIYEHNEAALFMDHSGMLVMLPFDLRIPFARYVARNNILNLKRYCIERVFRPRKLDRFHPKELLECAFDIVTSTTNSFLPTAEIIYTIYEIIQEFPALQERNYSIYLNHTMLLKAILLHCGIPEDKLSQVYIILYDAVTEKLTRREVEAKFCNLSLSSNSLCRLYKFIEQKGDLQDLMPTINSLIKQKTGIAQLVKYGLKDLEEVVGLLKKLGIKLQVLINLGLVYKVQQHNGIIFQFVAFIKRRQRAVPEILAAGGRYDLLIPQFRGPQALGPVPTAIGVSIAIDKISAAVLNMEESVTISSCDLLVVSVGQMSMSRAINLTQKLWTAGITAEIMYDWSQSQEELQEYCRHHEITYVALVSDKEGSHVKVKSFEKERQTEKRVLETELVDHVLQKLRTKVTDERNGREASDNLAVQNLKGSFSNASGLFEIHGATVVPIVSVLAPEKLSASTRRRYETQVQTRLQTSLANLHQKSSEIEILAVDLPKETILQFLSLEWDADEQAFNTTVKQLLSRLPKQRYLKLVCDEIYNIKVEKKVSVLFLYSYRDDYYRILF
Chain of Polycomb protein EED (O75530 whole entry): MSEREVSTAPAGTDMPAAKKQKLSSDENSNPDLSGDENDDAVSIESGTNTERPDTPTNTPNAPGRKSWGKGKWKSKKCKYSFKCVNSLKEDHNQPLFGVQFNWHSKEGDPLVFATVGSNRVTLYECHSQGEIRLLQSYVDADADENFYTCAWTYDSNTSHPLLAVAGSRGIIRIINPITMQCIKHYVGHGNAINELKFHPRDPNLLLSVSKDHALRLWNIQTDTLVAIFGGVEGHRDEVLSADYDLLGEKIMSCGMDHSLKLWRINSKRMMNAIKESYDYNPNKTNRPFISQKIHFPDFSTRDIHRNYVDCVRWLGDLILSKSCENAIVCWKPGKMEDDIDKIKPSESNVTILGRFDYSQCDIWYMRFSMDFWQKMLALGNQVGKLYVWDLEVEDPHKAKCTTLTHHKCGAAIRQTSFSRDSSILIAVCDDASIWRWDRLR
Chain of Ubiquitin carboxyl-terminal hydrolase 7 (Q93009 whole entry): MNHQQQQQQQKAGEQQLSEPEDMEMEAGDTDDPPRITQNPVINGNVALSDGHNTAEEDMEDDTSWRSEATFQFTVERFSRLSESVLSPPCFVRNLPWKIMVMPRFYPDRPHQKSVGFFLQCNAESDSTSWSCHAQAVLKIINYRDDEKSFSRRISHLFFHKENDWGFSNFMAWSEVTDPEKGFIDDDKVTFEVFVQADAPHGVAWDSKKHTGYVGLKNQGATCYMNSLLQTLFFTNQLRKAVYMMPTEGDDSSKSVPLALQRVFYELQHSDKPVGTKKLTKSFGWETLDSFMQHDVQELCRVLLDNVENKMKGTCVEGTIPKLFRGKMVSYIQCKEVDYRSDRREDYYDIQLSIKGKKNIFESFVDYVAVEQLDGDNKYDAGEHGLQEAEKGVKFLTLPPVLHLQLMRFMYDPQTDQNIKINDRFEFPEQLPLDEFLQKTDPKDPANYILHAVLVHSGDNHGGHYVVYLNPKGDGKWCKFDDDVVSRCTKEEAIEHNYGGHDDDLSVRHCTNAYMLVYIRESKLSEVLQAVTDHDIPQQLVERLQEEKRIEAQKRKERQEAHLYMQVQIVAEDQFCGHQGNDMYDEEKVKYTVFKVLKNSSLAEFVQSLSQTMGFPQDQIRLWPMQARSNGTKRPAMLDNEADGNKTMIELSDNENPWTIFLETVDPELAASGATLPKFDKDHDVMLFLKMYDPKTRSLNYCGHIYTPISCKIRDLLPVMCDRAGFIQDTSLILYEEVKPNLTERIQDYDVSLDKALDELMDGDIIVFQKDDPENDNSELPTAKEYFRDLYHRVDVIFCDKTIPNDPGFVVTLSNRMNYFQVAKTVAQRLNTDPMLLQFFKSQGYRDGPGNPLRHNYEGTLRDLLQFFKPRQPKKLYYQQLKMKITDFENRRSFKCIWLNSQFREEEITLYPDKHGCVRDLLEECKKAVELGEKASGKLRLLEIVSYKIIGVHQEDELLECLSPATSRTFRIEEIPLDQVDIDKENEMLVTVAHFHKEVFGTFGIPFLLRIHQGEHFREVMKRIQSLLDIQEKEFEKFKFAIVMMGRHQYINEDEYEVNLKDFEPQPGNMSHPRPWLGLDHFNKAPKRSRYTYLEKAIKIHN

- IC50 (eIF-2-alpha kinase GCN2 [1]): < 0.3 µM
SMILES: c1nn(C2CCOCC2)cc1Nc1ncc2nnn(-c3ccc4cn[nH]c4c3)c2n1

- inhibition (Tubulin (Homo sapiens)): 42%
SMILES: COc1cc(-c2nc3nc(C)c(C(C)=O)c(-c4ccc([N+](=O)[O-])cc4)n3n2)cc(OC)c1OC

SMILES: N#Cc1c2c(c3nncn3c1NCc1ccco1)CN(Cc1ccccc1)CC2
- IC50 (G-401): 3.28 µM

- IC50 (Tubulin [2]): 9.9 µM
SMILES: COc1ccc(-c2c(C(C)=O)c(C)nc3nc(-c4cc(OC)c(OC)c(OC)c4)nn23)cc1[N+](=O)[O-]

SMILES: CS(=O)(=O)c1ccc(-c2cnc(NCc3ccco3)n3cnnc23)cc1
- IC50 (Polycomb protein EED): 0.03 µM
- IC50 (G-401): 85 µM

- IC50 (Tubulin [3]): 3.84 µM
SMILES: COc1cc(-c2cc(-c3ccc(Cl)cc3)nc3nc(N)nn23)cc(OC)c1OC

- IC50 (eIF-2-alpha kinase GCN2 [1]): 0.016 µM
SMILES: CCOc1ccc(-n2nnc3cnc(Nc4cnn(C5CCOCC5)c4)nc32)cc1

- IC50 (Polycomb protein EED): 0.05 µM
SMILES: Cc1ncccc1-c1cnc(NCc2c(F)cc(N)c3c2CCO3)n2cnnc12

SMILES: CO[C@H]1C[C@H]2CC[C@@H](C1)N2c1c(-c2c(F)cc(F)cc2F)c(Cl)nc2ncnn12
- IC50 (A2780): 0.051 µM
- IC50 [4]: 0.081 µM

- IC50 (eIF-2-alpha kinase GCN2 [5]): 0.004 µM
SMILES: COc1ccc(-n2nnc3cnc(Nc4ccc(N)c(C)c4)nc32)cc1

SMILES: Cc1cc(Nc2ccccc2)n2nc(SCc3nc4ccccc4[nH]3)nc2n1
- T/C (SW620/AD300): 29.7%

- IC50 (Tubulin [3]): 0.39 µM
SMILES: Cc1cc(Nc2ccc(F)cc2)n2nc(NCCCc3ccccc3)nc2n1

- IC50 [6]: 1.1 µM
- IC50 [7]: > 100 µM
- IC50 [8]: > 100 µM
SMILES: CCCSc1nc(NCCN)c2nnn(Cc3ccc(Cl)cc3)c2n1
